Reference: patent publication US7368461B2 (AstraZeneca AB, priority 2001, dated 2008)
Where “and” joins values, the source holds several entries; their conditions need not be identical. Equal values may be shown once.

Experiments:
human NK1 receptors = target: T1, human NK1 receptors (Homo sapiens, UniProt P25103); test: Receptor binding assay with [3H]SP in membranes of MEL cells expressing cloned human NK1 receptors; details: cloned hNK1 in MEL cell membranes; for Ki: read-out: hNK1 (Ki expressed as -Log Molar) (converted)
T1 construct: expressed in transfected cells; host or cells: MEL cells (murine erythroleukemia), membranes
Method: (§1) Preparation of Membranes from MEL Cells Transfected with Cloned Human NK1 or NK2 receptors:
(§2) The cloning of the human lung NK1 and NK2 receptors was achieved as described by Hopkins, et al., Biochem. Biophys. Res. Commun. 180: 1110-1117 (1991), and Graham, et al., Biochem. Biophys. Res. Commun. 177: 8-16 (1991). Heterologous expression and scale-up growth of MEL cells transfected with human tachykinin receptors was performed as described for NK2 receptors by Aharony, et al., Mol. Pharmacol. 45: 9-19, 1994.
(§3) Membranes from recombinant MEL cells expressing NK1 or NK2 receptors were prepared as described by Hopkins, et al., (1991). Briefly, cells were homogenized at 4° C. (Brinkman PT-20 Polytron, setting 3, with one 15 sec burst on ice), in a buffer consisting of 50 mM Tris-HCl (pH7.4), 5 mM KCl, 120 mM NaCl, 10 mM EDTA and containing several protease inhibitors (1 mM phenylmethylsulfonylfluoride; 0.1 mg/ml soybean trypsin inhibitor, and 1 mM iodoacetamide). The homogenate was centrifuged at 1200×g for 45 min at 4° C. to remove cell debris. The supernatant was centrifuged at 48,000×g for 45 min at 4° C. The pellet was resuspended with a glass-Teflon motorized homogenizer in 30 volumes of ice-cold 50 mM Tris-HCl (pH 7.4) buffer.
(§4) Ligand binding assays with [^3H]NKA in MEL cells expressing cloned NK2 receptors or [^3H]SP in MEL cells expressing cloned NK1 receptors, were conducted generally as described by Aharony, et al., Mol. Pharmacol. 45: 9-19, 1994, Aharony, et al., Neuropeptides 23: 121-130 (1992) and Aharony, et al., J. Pharmacol. Exp. Ther. 259: 146-155(1991). In brief, incubations were carried out in assay buffer containing membranes, test compounds, and [^3H] ligand (1.0-1.5 nM). In competition experiments, mixtures (0.315 mL) containing various concentrations of competing agents (agonists, antagonists, or vehicle), were incubated at 25° C. for 30 min., with or without 1 μM unlabeled homogenous ligand (NKA or SP), to define non-specific binding. Reactions were initiated by adding membranes (0.1-0.15 mg protein/final concentration) and were conducted in duplicate. Saturation and kinetic experiments were conducted in triplicate. Separation of receptor-bound and free ligand was accomplished by dilution with 1 mL of wash buffer (20 mM Tris-HCl, pH 7.5) followed immediately by vacuum filtration with a total volume of 10 mL of wash buffer (utilizing a Brandel Cell Harvester MB-48R with Whatman GF/B filters presoaked in 0.1% polyethylenimine).
(§5) The ability of compounds disclosed herein to inhibit the binding of [^3H] ligand is shown by the results disclosed in Table 1.

[1] = test system: BANK-induced bladder contraction; test: BANK-induced bladder contraction in anesthetized guinea pigs; type: in vivo, guinea pig; details: for Inhibition of BANK-mediated GP bladder contraction (% Inhibition mediated by 52 nM/kg administered orally): anesthetized female guinea pigs, 52 nM/kg orally by gavage 1 hr before BANK 3 nmol/kg iv, mean ± S.E.M.
Method: BANK-Induced Bladder Contraction in Anesthetized Guinea Pigs:
Female guinea pigs (300-450 g) were anesthetized by intramuscular administration of ketamine/xylazine mixture (3/10 mg/kg, respectively). The jugular vein was catheterized and the distal end of the catheter connected to a syringe for administration of compound where appropriate. Subsequently, the bladder was exposed through a midline abdominal incision, the ureters tied with 4-0 silk suture approximately 2 cm above the bladder, and cut above the ligature to allow drainage from the kidneys. Cannula were passed through the proximal urethra and bladder sphincter into the bladder lumen. The bladder was manually emptied, infused with 0.3 mL saline, and the catheter attached to a Gould p23 ID pressure transducer for recording changes in bladder pressure. An equilibration period of approximately 15 min was allowed for stabilization of the animals following surgical preparation. Thiorphan (10 mg/kg iv) was administered 15 minutes before agonist exposure to inhibit neutral endopeptidase 3.4.24.11.
The response was allowed to decay during a 15 min equilibration period before intravenous administration of test compound ([…], 5% PEG 400-saline vehicle). An additional 15 min equilibration period elapsed before administration of an equivalent dose of BANK was repeated. Preliminary studies were performed to establish equivalence of bladder contractile responses to multiple administrations of BANK. Effects were calculated as the percentage difference between the response to BANK in the presence and absence of test compounds.
To establish the oral effect of test compounds, animals were administered the test compounds (52 nmol/kg, 5% PEG 400-saline vehicle) by gavage 1 hr before administration of BANK. This was followed by intravenous administration of BANK (3 nmol/kg). Bladder contraction occurring in the presence or absence of test compound was recorded as an increase in intravesical bladder pressure on a Grass 7D Polygraph and expressed as percent inhibition of the BANK-mediated effect. Duration of action studies were performed following oral administration of test compounds ([…], 5% PEG 400-saline vehicle) at different times prior to administration of BANK. Responses were calculated as the percentage difference between the response to BANK in the presence of test compound compared with sham-treated controls. For all studies, each animal was administered a single dose of test compound. Experimental results were expressed as the mean plus or minus the Standard Error of the Mean (±S.E.M) percentage change from basal level.
The ability of compounds disclosed herein to inhibit bladder contractions induced with BANK is shown by the results disclosed in Table 1.

human NK2 receptors = target: T2, human NK2 receptors (Homo sapiens, UniProt P21452); test: Receptor binding assay with [3H]NKA in membranes of MEL cells expressing cloned human NK2 receptors; details: cloned hNK2 in MEL cell membranes; for Ki: read-out: hNK2 (Ki expressed as -Log Molar) (converted)
T2 construct: expressed in transfected cells; host or cells: MEL cells (murine erythroleukemia), membranes
T2 sequence (P21452 1-398): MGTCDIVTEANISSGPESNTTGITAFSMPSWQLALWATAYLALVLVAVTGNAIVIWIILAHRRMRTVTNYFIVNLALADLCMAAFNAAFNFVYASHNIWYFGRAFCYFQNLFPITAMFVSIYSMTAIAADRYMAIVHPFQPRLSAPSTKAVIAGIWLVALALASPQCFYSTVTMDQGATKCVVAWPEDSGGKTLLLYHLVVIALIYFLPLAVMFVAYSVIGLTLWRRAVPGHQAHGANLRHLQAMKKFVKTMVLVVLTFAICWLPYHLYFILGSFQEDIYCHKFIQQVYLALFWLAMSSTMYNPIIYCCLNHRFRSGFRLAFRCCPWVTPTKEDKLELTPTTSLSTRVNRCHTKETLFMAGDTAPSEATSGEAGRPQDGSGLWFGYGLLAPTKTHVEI
Method: as §1, §2, §3, §4, §5

T1 sequence (P25103 whole entry): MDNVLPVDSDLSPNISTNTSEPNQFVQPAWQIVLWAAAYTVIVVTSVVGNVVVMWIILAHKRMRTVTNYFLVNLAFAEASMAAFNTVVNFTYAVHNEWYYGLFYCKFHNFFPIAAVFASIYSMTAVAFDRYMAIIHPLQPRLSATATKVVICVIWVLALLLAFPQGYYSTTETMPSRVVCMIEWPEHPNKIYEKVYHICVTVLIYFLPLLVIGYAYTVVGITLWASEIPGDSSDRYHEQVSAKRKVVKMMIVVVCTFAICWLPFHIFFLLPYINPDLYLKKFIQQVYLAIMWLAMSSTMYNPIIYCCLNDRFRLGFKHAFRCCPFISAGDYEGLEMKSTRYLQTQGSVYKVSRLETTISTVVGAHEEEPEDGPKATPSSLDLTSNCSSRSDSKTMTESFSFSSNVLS

SMILES	Ki (human NK1 receptors) [nM]	Inhibition of BANK-mediated GP bladder contraction (% Inhibition mediated by 52 nM/kg administered orally) [1]	Ki (human NK2 receptors) [nM]	hNK1 (Ki expressed as -Log Molar) (human NK1 receptors)	hNK2 (Ki expressed as -Log Molar) (human NK2 receptors)	increase in the bladder contraction induced by BANK ([1]; guinea pig, as shown in Table 1 (52 nM/kg orally)) [%]	inhibition at 10 µM (human NK1 receptors; 10 μM) [%]
CN(C[C@@H](CCN1CCC(N2CCCCC2=O)CC1)c1ccc(Cl)c(Cl)c1)C(=O)c1ccccc1F [Example 1, (S)—N-[2-(3,4-Dichloro-phenyl)-4-(2-oxo-[1,4′]bipiperidinyl-1′-yl)-butyl]-2-fluoro-N-methyl-benzamide]	91.2	80% and 80 ± 6%	1.45	–	–	–	–
CN(C[C@@H](CCN1CCC(N2CCCCC2=S)CC1)c1ccc(Cl)c(Cl)c1)C(=O)c1ccccc1 [Example 2, (S)—N-[2-(3,4-Dichlorophenyl)-4-[4-(2-thio-piperidin-1-yl)piperidino]butyl]-N-methylbenzamide]	–	42 ± 13%	–	7.22 -Log Molar	8.73 -Log Molar	–	–
CN(C[C@@H](CCN1CCC(N2CCCCC2=O)CC1)c1ccc(Cl)c(Cl)c1)C(=O)c1ccc(F)cc1 [Example 4, (S)—N-[2-(3,4-Dichlorophenyl)-4-[4-(2-oxo-piperidin-1-yl)piperidino]butyl]-N-methyl-4-fluorobenzamide]	–	−28 ± 45%	–	–	–	28	–
CN(C[C@@H](CCN1CCC(N2CCCCC2=O)CC1)c1ccc(Cl)c(Cl)c1)C(=O)c1ccccc1 [Example 5, (S)—N-[2-(3,4-Dichlorophenyl)-4-[4-(2-oxo-piperidin-1-yl)piperidino]butyl]-N-methylbenzamide]	427	–	3.31	–	–	–	–
CCNC(=O)C1(N2CCCCC2=O)CCN(CC[C@H](CN(C)C(=O)c2ccccc2)c2ccc(Cl)c(Cl)c2)CC1 [Example 6]	–	−65 ± 58%	0.2	–	–	–	84
